According to ChEMBL document CHEMBL1201862, “PubChem BioAssay data set” (2004):
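Briefly, cells in 96-well plates were exposed to five compound concentrations for 48 h, and endpoints were estimated by linear interpolation. The concentration for 50% growth inhibition is given as GI50.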 The source made the active and inactive calls. No stated cut-off is given here; in the data, active = GI50 up to about 1.1 µM and inactive = higher.

Tests used:
Assay in all cases: inhibition of tumour cell growth, NCI panel, 48 h
Hs-578T = tested on: Hs-578T
K562 = tested on: K562
DU-145 = tested on: DU-145
MDA-MB-231 = tested on: MDA-MB-231
UACC-257 = tested on: UACC-257
RPMI-8226 = tested on: RPMI-8226
M14 = tested on: M14
HCT-116 = tested on: HCT-116
SR = tested on: SR
COLO 205 = tested on: COLO 205
MOLT-4 = tested on: MOLT-4
SK-MEL-28 = tested on: SK-MEL-28
PC-3 = tested on: PC-3
Malme-3M = tested on: Malme-3M
NCI-H460 = tested on: NCI-H460
NCI-H522 = tested on: NCI-H522
UO-31 = tested on: UO-31
LOX IMVI = tested on: LOX IMVI
HT-29 = tested on: HT-29
HOP-62 = tested on: HOP-62
HOP-92 = tested on: HOP-92
SF-295 = tested on: SF-295
CCRF-CEM = tested on: CCRF-CEM
EKVX = tested on: EKVX
OVCAR-3 = tested on: OVCAR-3
TK-10 = tested on: TK-10
OVCAR-4 = tested on: OVCAR-4
HCT-15 = tested on: HCT-15
HL-60 = tested on: HL-60
U-251 = tested on: U-251
A498 = tested on: A498
SW-620 = tested on: SW-620
SF-268 = tested on: SF-268
MCF7 = tested on: MCF7
OVCAR-8 = tested on: OVCAR-8
T47D = tested on: T47D
NCI-H23 = tested on: NCI-H23
IGROV-1 = tested on: IGROV-1
SF-539 = tested on: SF-539
SK-MEL-5 = tested on: SK-MEL-5
KM12 = tested on: KM12
SN12C = tested on: SN12C
OVCAR-5 = tested on: OVCAR-5
NCI-H226 = tested on: NCI-H226
MDA-N = tested on: MDA-N
786-0 = tested on: 786-0
CAKI-1 = tested on: CAKI-1
SNB-19 = tested on: SNB-19
BT-549 = tested on: BT-549
UACC-62 = tested on: UACC-62
SK-MEL-2 = tested on: SK-MEL-2
NCI/ADR-RES = tested on: NCI/ADR-RES
RXF 393 = tested on: RXF 393
MDA-MB-435 = tested on: MDA-MB-435
A549 = tested on: A549
SK-OV-3 = tested on: SK-OV-3
ACHN = tested on: ACHN

Structure (SMILES): O=C(O)c1ccc(CNCc2ccccc2)cc1
- GI50 (Hs-578T): > 100 µM (inactive)
- GI50 (K562): > 100 µM (inactive)
- GI50 (DU-145): > 100 µM (inactive)
- GI50 (MDA-MB-231): > 100 µM (inactive)
- GI50 (UACC-257): > 100 µM (inactive)
- GI50 (RPMI-8226): > 100 µM (inactive)
- GI50 (M14): > 100 µM (inactive)
- GI50 (HCT-116): > 100 µM (inactive)
- GI50 (SR): > 100 µM (inactive)
- GI50 (COLO 205): > 100 µM (inactive)
- GI50 (MOLT-4): > 100 µM (inactive)
- GI50 (SK-MEL-28): > 100 µM (inactive)
- GI50 (PC-3): > 100 µM (inactive)
- GI50 (Malme-3M): > 100 µM (inactive)
- GI50 (NCI-H460): > 100 µM (inactive)
- GI50 (NCI-H522): > 100 µM (inactive)
- GI50 (UO-31): > 100 µM (inactive)
- GI50 (LOX IMVI): > 100 µM (inactive)
- GI50 (HT-29): > 100 µM (inactive)
- GI50 (HOP-62): > 100 µM (inactive)
- GI50 (HOP-92): > 100 µM (inactive)
- GI50 (SF-295): > 100 µM (inactive)
- GI50 (CCRF-CEM): > 100 µM (inactive)
- GI50 (EKVX): > 100 µM (inactive)
- GI50 (OVCAR-3): > 100 µM (inactive)
- GI50 (TK-10): > 100 µM (inactive)
- GI50 (OVCAR-4): > 100 µM (inactive)
- GI50 (HCT-15): > 100 µM
- GI50 (HL-60): > 100 µM (inactive)
- GI50 (U-251): > 100 µM (inactive)
- GI50 (A498): > 100 µM (inactive)
- GI50 (SW-620): > 100 µM (inactive)
- GI50 (SF-268): > 100 µM (inactive)
- GI50 (MCF7): > 100 µM (inactive)
- GI50 (OVCAR-8): > 100 µM (inactive)
- GI50 (T47D): > 100 µM (inactive)
- GI50 (NCI-H23): > 100 µM (inactive)
- GI50 (IGROV-1): > 100 µM (inactive)
- GI50 (SF-539): > 100 µM (inactive)
- GI50 (SK-MEL-5): > 100 µM (inactive)
- GI50 (KM12): > 100 µM (inactive)
- GI50 (SN12C): > 100 µM (inactive)
- GI50 (OVCAR-5): > 100 µM (inactive)
- GI50 (NCI-H226): > 100 µM (inactive)
- GI50 (MDA-N): > 100 µM (inactive)
- GI50 (786-0): > 100 µM (inactive)
- GI50 (CAKI-1): > 100 µM (inactive)
- GI50 (SNB-19): > 100 µM (inactive)
- GI50 (BT-549): > 100 µM (inactive)
- GI50 (UACC-62): > 100 µM (inactive)
- GI50 (SK-MEL-2): > 100 µM (inactive)
- GI50 (NCI/ADR-RES): > 100 µM (inactive)
- GI50 (RXF 393): > 100 µM (inactive)
- GI50 (MDA-MB-435): > 100 µM (inactive)
- GI50 (A549): > 100 µM (inactive)
- GI50 (SK-OV-3): > 100 µM (inactive)
- GI50 (ACHN): > 100 µM (inactive)
